Assay results as given in patent publication EP4781984A1 (Beyang Therapeutics Co., Ltd., priority 2023, dated 2025).
Converted amounts (≈) assume the structure as drawn.

How the values were obtained:
EGFR = target: T1, EGFR (Homo sapiens, UniProt P00533); assay: Kinase inhibitory activity, Mobility Shift Assay (EGFR); type: biochemical
T1 construct: purchased Carna 08-115
Description: (§1) Assay for Inhibitory Activity of Compounds Against VEGFR and EGFR Kinases
(§2) This assay directly monitors the inhibitory activity of compounds on kinase phosphorylation by measuring non-phosphorylated and phosphorylated substrates in the kinase reaction using Mobility Shift Assays/IMAP™ analysis. Table 2. Reagents and Instruments
(§3) Kinase and DTT were added to 1X kinase buffer to form a 2.5X kinase solution; 10 µL of the 2.5X kinase solution was transferred to a 384-well reaction plate, and 1X kinase buffer was added to the negative control wells. The plate was incubated at room temperature for 10 minutes; FAM-labeled peptide, MgCl2, ATP, and other reagents were added to 1X kinase buffer to form a 2.5X substrate solution; 10 µL of the above 2.5X substrate solution was transferred to the 384-well reaction plate; the plate was incubated at 28°C for varying times, and then 25 µL of stop solution was added to the 384-well reaction plate to terminate the reaction. Conversion rate data were read on a CaliperEZ Reader II. […] IC50 values were fitted using XLFit excel add-in version 5.4.0.8. Y = Bottom + (Top−Bottom)/(1 + […]) [formula]
(§4) X is the log value of compound concentration, Y is the inhibition rate (% inhibition).

melanin = assay: Compound binding to melanin; type: in vitro ADME; conditions: cuttlefish (Sepia officinalis), melanin suspension (1 mg/mL), percentage of free drug (not bound to melanin), 2 µM compound, melanin 1 mg/mL in PBS pH 7.4, 37°C
From the text: Detection of Compound Binding to Melanin
Pigmented ocular tissues contain melanin within intracellular melanosomes. Drugs bind to melanin to varying degrees, from no binding to extensive binding. Therefore, melanin binding is an important characteristic affecting ocular drug delivery and biodistribution. The ability of compounds to bind to melanin must be considered in ocular drug development.
Melanin derived from cuttlefish (Sepia officinalis) melanin was purchased from Sigma Aldrich (St Louis, MO).
First, prepare a 1 mg/mL melanin suspension in PBS (pH 7.4). As a matrix washing step, suspended particles were centrifuged at 3000 rpm for 5 minutes. The resulting pellet was resuspended in fresh PBS buffer, heated to 37°C with continuous shaking, and incubated for 1 hour. Accurately pipette 2 microliters of test compound stock solution (0.1 mM) into 98 microliters of melanin suspension (1 mg/mL), resulting in a final incubation concentration of 2 µM. Similarly, accurately pipette 2 microliters of stock solution (0.1 mM) into 98 microliters of PBS buffer (containing 0.1% BSA) as a blank control sample. Samples were incubated at 37°C for 2 hours on a shaker (80-90 rpm). Then centrifuged at room temperature. 50 microliters of supernatant was aspirated and added to 50 microliters of precipitation agent (containing internal standard). All samples above were subjected to protein precipitation, centrifuged, the supernatant was taken, diluted with water (if necessary), and then injected for analysis. Simultaneously, high-binding compounds Sunitinib and chloroquine, and the low-binding compound celecoxib were measured as positive controls. An LC-MS/MS analytical method for determining compound concentration was established. The ratio of analyte/internal standard peak areas (Aanalyte/AIS) measured in the samples, calibrated by the dilution factor, was used as the surrogate concentration for data processing. The binding rate of the compound to melanin (Fb) is calculated by the formula: Fb = 100−(Ctest)/(Ccontrol) × 100% [formula]
Ctest is the drug concentration of the compound in the melanin incubation sample or the peak area ratio of the test compound to the internal standard. Ccontrol is the drug concentration of the compound in the blank control sample or the peak area ratio of the test compound to the internal standard. Percentage of free drug (Fu%) = 100 - Fb The binding rates of the compounds of the present invention to melanin are shown in the table below: Table 11. Binding Rate of Compounds to Melanin

[1] = Thermodynamic solubility test; type: physicochemical; conditions: buffer solution, aqueous buffer, thermodynamic from solid; thermodynamic solubility, room temperature, 8 hours shaking; buffers pH 2.0, 6.5, 7.4 used, pH of the tabulated value not given
Description: Solubility Test of Compounds
Table 9. Reagents and Instruments
After sonication for 10 minutes, they were fixed on a shaker and shaken at room temperature for 8 hours. After shaking, they were sonicated for 10 minutes and centrifuged at 13000 rpm for 15 minutes. 0.1 mL of supernatant was aspirated into a new tube, rinsed with 5 mL of buffer by shaking, and the liquid was discarded. 0.5 mL of supernatant was transferred again to a new tube, centrifuged at 13000 rpm for 15 minutes, and the supernatant was taken (diluted with water if necessary) for LC-MS injection analysis. Sample concentrations were quantified using a 3-5 point calibration curve.

VEGFR2 = target: T2, VEGFR2 (Homo sapiens, UniProt P35968); assay: Kinase inhibitory activity, Mobility Shift Assay (VEGFR2); type: biochemical
T2 construct: purchased Carna 08-191
Description: as §1, §2, §3, §4

T2 sequence (P35968 20-1356): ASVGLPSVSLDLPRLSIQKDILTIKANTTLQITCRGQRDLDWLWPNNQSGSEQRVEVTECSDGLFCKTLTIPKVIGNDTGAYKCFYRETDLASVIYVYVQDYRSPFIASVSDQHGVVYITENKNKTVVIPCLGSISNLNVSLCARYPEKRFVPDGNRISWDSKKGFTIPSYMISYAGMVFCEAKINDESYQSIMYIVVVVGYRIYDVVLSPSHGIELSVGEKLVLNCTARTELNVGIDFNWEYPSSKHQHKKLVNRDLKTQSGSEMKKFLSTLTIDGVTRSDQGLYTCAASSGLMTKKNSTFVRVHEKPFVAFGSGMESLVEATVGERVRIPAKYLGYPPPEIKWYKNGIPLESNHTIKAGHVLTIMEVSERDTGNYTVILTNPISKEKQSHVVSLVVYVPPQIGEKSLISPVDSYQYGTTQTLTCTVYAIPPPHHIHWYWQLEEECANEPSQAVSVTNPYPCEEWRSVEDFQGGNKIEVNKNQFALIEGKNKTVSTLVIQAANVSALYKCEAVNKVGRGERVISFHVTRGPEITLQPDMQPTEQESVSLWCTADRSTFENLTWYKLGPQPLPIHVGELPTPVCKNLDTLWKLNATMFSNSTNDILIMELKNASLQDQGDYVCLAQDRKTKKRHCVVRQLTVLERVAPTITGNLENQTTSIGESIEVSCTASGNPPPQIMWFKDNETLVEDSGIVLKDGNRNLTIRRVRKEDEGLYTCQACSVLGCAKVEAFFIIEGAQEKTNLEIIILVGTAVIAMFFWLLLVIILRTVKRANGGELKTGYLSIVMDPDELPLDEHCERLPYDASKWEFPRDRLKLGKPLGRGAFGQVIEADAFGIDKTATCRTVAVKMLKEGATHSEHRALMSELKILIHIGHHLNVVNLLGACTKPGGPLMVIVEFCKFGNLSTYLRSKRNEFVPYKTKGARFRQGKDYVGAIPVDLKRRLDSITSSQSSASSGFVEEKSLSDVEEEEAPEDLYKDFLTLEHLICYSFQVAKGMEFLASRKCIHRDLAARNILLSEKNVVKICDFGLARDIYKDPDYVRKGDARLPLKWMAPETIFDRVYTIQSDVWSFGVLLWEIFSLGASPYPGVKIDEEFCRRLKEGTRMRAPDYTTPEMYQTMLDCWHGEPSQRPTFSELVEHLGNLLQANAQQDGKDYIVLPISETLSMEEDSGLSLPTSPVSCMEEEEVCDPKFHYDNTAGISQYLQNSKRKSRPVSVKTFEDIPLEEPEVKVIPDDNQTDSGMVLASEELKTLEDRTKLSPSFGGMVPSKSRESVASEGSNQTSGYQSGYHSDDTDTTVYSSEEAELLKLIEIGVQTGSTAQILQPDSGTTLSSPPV
T1 sequence (P00533 25-1210): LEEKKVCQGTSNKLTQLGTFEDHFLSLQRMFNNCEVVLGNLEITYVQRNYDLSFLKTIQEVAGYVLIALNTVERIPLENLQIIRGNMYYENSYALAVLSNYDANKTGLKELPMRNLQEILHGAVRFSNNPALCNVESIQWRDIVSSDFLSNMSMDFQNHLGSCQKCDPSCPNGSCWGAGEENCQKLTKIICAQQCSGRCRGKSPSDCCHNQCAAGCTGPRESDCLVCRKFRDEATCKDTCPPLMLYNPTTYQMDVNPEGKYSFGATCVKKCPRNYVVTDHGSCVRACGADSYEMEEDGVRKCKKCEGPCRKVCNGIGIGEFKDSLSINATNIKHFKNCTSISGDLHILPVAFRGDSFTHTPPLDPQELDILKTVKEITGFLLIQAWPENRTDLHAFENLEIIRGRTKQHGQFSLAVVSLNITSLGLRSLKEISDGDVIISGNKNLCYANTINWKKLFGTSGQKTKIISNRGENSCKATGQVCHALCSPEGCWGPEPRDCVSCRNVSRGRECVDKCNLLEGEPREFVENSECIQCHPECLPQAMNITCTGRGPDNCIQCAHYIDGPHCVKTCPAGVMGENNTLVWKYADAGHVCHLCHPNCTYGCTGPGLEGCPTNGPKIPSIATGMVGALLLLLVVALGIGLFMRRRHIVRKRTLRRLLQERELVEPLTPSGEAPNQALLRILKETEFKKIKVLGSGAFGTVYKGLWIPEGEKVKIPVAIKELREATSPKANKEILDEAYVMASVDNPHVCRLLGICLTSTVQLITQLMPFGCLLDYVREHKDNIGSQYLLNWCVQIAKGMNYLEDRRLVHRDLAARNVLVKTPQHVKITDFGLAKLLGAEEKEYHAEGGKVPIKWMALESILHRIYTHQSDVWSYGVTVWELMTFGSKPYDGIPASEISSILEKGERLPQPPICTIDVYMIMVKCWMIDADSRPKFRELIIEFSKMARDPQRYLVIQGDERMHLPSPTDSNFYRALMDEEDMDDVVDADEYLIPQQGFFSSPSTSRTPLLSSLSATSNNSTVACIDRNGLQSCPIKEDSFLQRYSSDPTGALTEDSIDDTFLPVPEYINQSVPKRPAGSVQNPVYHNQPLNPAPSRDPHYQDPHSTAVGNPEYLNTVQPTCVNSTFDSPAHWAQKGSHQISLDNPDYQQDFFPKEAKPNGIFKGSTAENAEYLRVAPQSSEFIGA

Structure (SMILES)	IC50 (EGFR)	fraction unbound at 2 h, 2 µM (melanin)	solubility at 8 h [1]	IC50 (VEGFR2)
CNC(=O)c1ccccc1Sc1ccc2c(/C=C/c3ccc(OCCN4CCCC4)nc3)n[nH]c2c1 [Compound I-19, N-methyl-2-((3-((E)-2-(6-(2-(pyrrolidin-1-yl)ethoxy)pyridin-3-yl)ethenyl)-1H-indazol-6-yl)thio)benzamide]	> 60 µM	0.01 to 0.05	–	–
CNC(=O)c1ccccc1Sc1ccc2c(/C=C/c3cncc(OCCN4CCCC4)c3)n[nH]c2c1 [Compound I-22]	> 60 µM	0.01 to 0.05	57.4 µg/mL (≈ 115 µM)	–
CN1CCC(CCOc2ccc(/C=C/c3n[nH]c4cc(Sc5ccccc5C(=O)NC5CC5)ccc34)nc2)CC1 [Compound I-42]	> 60 µM	0.01 to 0.05	–	–
O=C(NC1CC1)c1cc(F)ccc1Sc1ccc2c(/C=C/c3cnn(CCCN4CCCC4)c3)n[nH]c2c1 [Compound I-46]	–	–	–	≤ 0.001 µM
CCNC(=O)c1ccc(F)cc1Sc1ccc2c(/C=C/c3cnn(CCCN4CCCC4)c3)n[nH]c2c1 [Compound I-103, N-ethyl-4-fluoro-2-({3-[(E)-2-{1-[3-(pyrrolidin-1-yl)propyl]-1H-pyrazol-4-yl}ethenyl]-1H-indazol-6-yl}sulfanyl)benzamide]	–	–	–	≤ 0.001 µM
CNC(=O)c1cc(F)ccc1Sc1ccc2c(/C=C/c3cnn(CCCN4CCCC4)c3)n[nH]c2c1 [Compound I-106]	6 to 60 µM	> 0.05	–	–
CCN(CC)CCc1ccc(/C=C/c2n[nH]c3cc(Sc4cc(F)ccc4C(=O)NC4CC4)ccc23)nc1 [Compound I-108]	–	–	–	≤ 0.001 µM
CCNC(=O)c1cccc(F)c1Sc1ccc2c(/C=C/c3cccc(CN4CCCC4)n3)n[nH]c2c1 [Compound I-113, N-ethyl-3-fluoro-2-({3-[(E)-2-{6-[(pyrrolidin-1-yl)methyl]pyridin-2-yl}ethenyl]-1H-indazol-6-yl}sulfanyl)benzamide]	–	–	–	> 0.1 µM
CCNC(=O)c1cccc(F)c1Sc1ccc2c(/C=C/c3cc(CCCN4CCCC4)ccn3)n[nH]c2c1 [Compound I-116, N-ethyl-3-fluoro-2-({3-[(E)-2-{4-[3-(pyrrolidin-1-yl)propyl]pyridin-2-yl}ethenyl]-1H-indazol-6-yl}sulfanyl)benzamide]	> 60 µM	0.01 to 0.05	–	–
O=C(NC1CC1)c1ccccc1Sc1ccc2c(/C=C/c3cccc(CN4CCCC4)n3)n[nH]c2c1 [Compound I-117]	> 60 µM	0.01 to 0.05	–	–
O=C(NC1CC1)c1cc(F)ccc1Sc1ccc2c(/C=C/c3cc(OCCN4CCCC4)ccn3)n[nH]c2c1 [Compound I-118]	> 60 µM	≤ 0.01	–	–
O=C(NC1CC1)c1cccc(F)c1Sc1ccc2c(/C=C/c3cc(CCCN4CCCC4)ccn3)n[nH]c2c1 [Compound I-123]	> 60 µM	–	–	–
O=C(NC1CC1)c1cccc(F)c1Sc1ccc2c(/C=C/c3cccc(CCN4CCCC4)n3)n[nH]c2c1 [Compound I-128]	> 60 µM	–	–	–
CCNC(=O)c1cccc(F)c1Sc1ccc2c(/C=C/c3cccc(CCN4CCCC4)n3)n[nH]c2c1 [Compound I-129]	> 60 µM	–	–	–
O=C(NC1CC1)c1ccccc1Sc1ccc2c(/C=C/c3cc(CCN4CCCC4)ccn3)n[nH]c2c1 [Compound I-133, N-cyclopropyl-2-((3-((E)-2-(4-(2-(pyrrolidin-1-yl)ethyl)pyridin-2-yl)ethenyl)-1H-indazol-6-yl)thio)benzamide]	> 60 µM	–	–	–
O=C(NC1CC1)c1cc(F)ccc1Sc1ccc2c(/C=C/c3cc(CCN4CCCC4)ccn3)n[nH]c2c1 [Compound I-135]	> 60 µM	–	–	–
O=C(NC1CC1)c1cc(F)ccc1Sc1ccc2c(/C=C/c3cccc(CCN4CCCC4)n3)n[nH]c2c1 [Compound I-136]	> 60 µM	–	–	–
O=C(NC1CC1)c1cc(F)ccc1Sc1ccc2c(/C=C/c3cc(CN4CCCC4)ccn3)n[nH]c2c1 [Compound I-137]	> 60 µM	–	–	–
O=C(NC1CC1)c1cc(F)ccc1Sc1ccc2c(/C=C/c3cccc(CN4CCCC4)n3)n[nH]c2c1 [Compound I-138]	> 60 µM	–	–	–
O=C(NC1CC1)c1ccccc1Sc1ccc2c(C#Cc3ccc(OCCN4CCCC4)cn3)n[nH]c2c1 [Compound I-139]	> 60 µM	–	–	–
